Residues, ends and D or L forms follow the SMILES beside them. *: point of attachment. Cbz = O=C(OCc1ccccc1)*
Test system: HA-DISC1
Assay: DISC1 ubiquitination in transfected HEK293 cells, immunoprecipitation
Type: cell-based, human
Procedure: Briefly, detergent-soluble proteins were isolated from cells by disruption in lysis buffer 20 mM Tris-HCl (pH 7.5), 150 mM NaCl, 1 mM Na2EDTA, 1 mM EGTA, 1% triton, 2.5 mM sodium pyrophosphate, 1 mM β-glycerophosphate, 1 mM Na3VO4, 1 μg ml^–1 leupeptin, 10 mM DTT with Roche protease inhibitor, phosSTOP (Roche, 04906837001). Detergent-insoluble proteins were removed by centrifugation at 10 000 g for 10 min, and the soluble fraction was retained. Cell lysates were adjusted to equal protein amount (1 μg μl^–1) using cell lysis buffer. Cell lysates normalized for the protein concentration were incubated with mouse IgG (Millipore, 12487) Protein A agarose beads for 2 h at 4 °C. […] The complexes were analyzed on SDS PAGE. […]
Antibodies used in this study are detailed in Supplementary Table 1. […] Chemiluminescent images of immune detected bands were recorded on blue-light sensitive autoradiography X-ray films, which were then developed using the Kodak X-Omat Model 2000 processor and band intensities were quantified using image J. Alternatively blots were visualized using the Licor Odyssey system and quantified using LICOR Image Studio Lite (Licor Biosciences).
Figure 1 DISC1 turnover is regulated by the ubiquitin-proteosome system. […] HA-DISC1 levels were evaluated using densitometry (bar-chart, n=3). ‘Nt’ indicates no treatment control. […]

CC(C)C[C@@H](C=O)NC(=O)[C@H](CC(C)C)NC(=O)[C@H](CC(C)C)NC(=O)OCc1ccccc1 [MG132] (Cbz-Leu-Leu-Leu-aldehyde)
co-purification of HA-DISC1 with ubiquitin (MG132 10 μM, 30 min exposure, Figure 1c): HA-DISC1 immunoprecipitates co-purify with ubiquitin after a 30 min exposure to MG132
DISC1 ubiquitination with over-expressed DISC1 or ubiquitin, further effect of MG132 (MG132 10 µM, Supplementary Figure 1a): not enhanced further by MG132
